Here are results for 1 cell line from the supplement of paper PMC10307832.

Common to all, as to assay: relative viability (nuclei count vs DMSO), 5 days (fraction); higher = more cells survive
Compound in assay [1]: O[C@@H](COc1cccc2ncccc12)CN1CCN([C@@H]2c3ccccc3[C@@H]3[C@H](c4ccccc42)C3(F)F)CC1 [Zosuquidar] + N=C(N)NC(=N)NCCc1ccccc1 [Phenformin] (partner 250 µM)
A digest of the protocol:
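For relative viability, nuclei counts in treated wells were divided by those in vehicle wells. Lung cancer cell lines had been pin-tool dosed in 1536-well plates the day after seeding and cultured for 5 days, then fixed and stained in one step (final 0.05% Triton X-100, 1% formaldehyde, 1 ug/ml Hoechst) and imaged at 4×. Doses were one drug alone or a fixed anchor-drug dose plus five library-drug doses (not always all listed) in √10 steps, and values are duplicate-plate medians.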

Compound in assay [2]: O[C@@H](COc1cccc2ncccc12)CN1CCN([C@@H]2c3ccccc3[C@@H]3[C@H](c4ccccc42)C3(F)F)CC1 [Zosuquidar]
A digest of the protocol:
(§1)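 Lung cancer cell lines received five library-drug doses (not always all listed) spaced by √10, pinned on vehicle-anchored 1536-well plates after an overnight stay at 37 °C. Five days later, with no medium change, nuclei were Hoechst-stained, imaged at 4× and counted with MetaXpress. Viability is treated-well nuclei relative to vehicle-well nuclei, as a median across plates. Passing plates had control CV below 25% and at least one doubling.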

Compound in assay [3]: COc1cc2nccc(Oc3ccc(NC(=O)C4(C(=O)Nc5ccc(F)cc5)CC4)cc3)c2cc1OC [Cabozantinib]
A digest of the protocol:
as §1

Compound in assay [4]: C1=CC(=CC=C1NC(=S)NNC2=C(C=C(C=C2[N+](=O)[O-])C(F)(F)F)[N+](=O)[O-])F [Kobe2602]
The method in brief:
as §1

Consider UMC-11, for which the relative viability came out at 0.32 in assay [1] (first compound 0.01 µM); 0.331 in assay [1] (first compound 0.03162 µM); 0.441 in assay [1] (first compound 0.1 µM); 0.386 in assay [1] (first compound 0.3162 µM); 0.324 in assay [1] (first compound 1 µM); 0.957 in assay [2] (0.01 µM). Moreover, the relative viability is 1.04 in assay [2] (0.03162 µM); 0.908 in assay [2] (0.1 µM); 1.11 in assay [2] (0.3162 µM); 0.96 in assay [2] (1 µM); 0.989 in assay [3] (0.02 µM); 1.11 in assay [3] (0.06325 µM). For the same cell line, the relative viability in assay [3] (0.2 µM) worked out at 0.963; in assay [3] (0.6325 µM), 1.04; in assay [3] (2 µM), 1; in assay [4] (0.2 µM), 1.05; in assay [4] (0.6325 µM) it was 1.01; in assay [4] (2 µM) it was 1.06. Also, the figures for the relative viability in assay [4] (6.325 µM) and in assay [4] (20 µM) were 0.975 and 1.05, respectively.
